Data reported in patent publication US20090209581A1, “NITROXIDES FOR USE IN TREATING OR PREVENTING IMMUNOLOGICAL DISEASES” (priority 2005, published 2009).

What was measured:
[1] = test system: glucocorticoid-induced leucine zipper (GILZ); experiment: Gene expression in cardiac tissue of mice after Tempol administration, chip-based microarray; format: in vivo
Description: To assess the effects of Tempol on gene expression, Tempol was administered to experimental mice at a dose of 5 mg/g of food from 14 months to 31 months after birth. Mice receiving the same food without the addition of Tempol were used as a negative control. At the age of 31 months, the experimental animals were sacrificed and the hearts were surgically removed. The expression of a broad spectrum of genes in the cardiac tissue was assessed using chip-based microarray technology. Such chips are well known in the art and are widely used to assess gene expression.

[2] = test system: collagen type I alpha 1 (COL1A1); experiment: Gene expression in adipose tissue of mice after Tempol administration, Affymetrix MOE430A 2.0 array; format: in vivo
Description: (§1) In a further gene expression study, Tempol was administered to experimental mice at a dose of 5 g/kg of diet from 12 months through 15 months. Mice receiving the same diet without the addition of Tempol were used as a negative control. At the age of 15 months, the adipose tissue of the experimental animals was obtained. The expression of a broad spectrum of genes in the adipose tissue was assessed using chip-based microarray technology. Specifically, in this case an Affymetrix MOE430A 2.0 array, containing 12,960 genes, was employed. Such chips are well known in the art and are widely used to assess gene expression.

[3] = test system: complement component 6 (C6); experiment: as above; format: in vivo
Description: as §1

[4] = test system: glucocorticoid-induced leucine zipper; experiment: Protein level in circulating monocytes of patient after Tempol treatment; format: in vivo, human
Description: (§2) A 70-kilogram patient diagnosed with an autoimmune disease is administered a dose of 1500 mg of Tempol per day for 180 days. This may be administered in a single dose, or may be administered as a number of smaller doses over a 24-hour period: for example, three 500-mg doses at eight-hour intervals. Following treatment, the protein level of glucocorticoid-induced leucine zipper in circulating monocytes is increased, and the protein levels of complement component 6 in plasma and of collagen type 1 A1 in fibroblasts is reduced.
as §2, with “patient” for “patient diagnosed with an autoimmune disease”, “days prior to receiving an organ transplant.” for “days.”

complement component 6 = experiment: Protein level in plasma of patient after Tempol treatment; format: in vivo, human
Description: as §2
as §2, with “patient” for “patient diagnosed with an autoimmune disease”, “days prior to receiving an organ transplant.” for “days.”

collagen type 1 A1 = experiment: Protein level in fibroblasts of patient after Tempol treatment; format: in vivo, human
Description: as §2
as §2, with “patient” for “patient diagnosed with an autoimmune disease”, “days prior to receiving an organ transplant.” for “days.”

[5] = 5 g/kg of diet from 12 through 15 months, microarray signal
[6] = Example 1: patient with autoimmune disease, 1500 mg per day for 180 days
[7] = Example 2: 1500 mg per day for 180 days prior to organ transplant

CC1(C)CC(O)CC(C)(C)N1[O] [Tempol, 4-hydroxy-2,2,6,6-tetramethylpiperidine-1-oxyl]
GILZ Fold change ([1]; TEMPOL-treated vs control mice, upregulated gene): 2.3 | GILZ (AA097711) expression, TEMPOL-treated mice tp51 ([1]; mouse tp51, 5 mg/g of food from 14 to 31 months, microarray signal): 83 | GILZ (AA097711) expression, TEMPOL-treated mice tp52 ([1]; mouse tp52, 5 mg/g of food from 14 to 31 months, microarray signal): 33 | GILZ (AA097711) expression, TEMPOL-treated mice tp53 ([1]; mouse tp53, 5 mg/g of food from 14 to 31 months, microarray signal): 4 | COL1A1 expression, Mean (Tempol-treated mice) [2, 5]: 1688 | COL1A1 Fold change ([2]; Tempol-treated vs control mice): −1.28 | C6 expression, Mean (Tempol-treated mice) [3, 5]: 337 | C6 Fold change ([3]; Tempol-treated vs control mice): −1.85 | C6 expression decrease ([3]; Tempol-treated vs control mice): decrease in expression | protein level of glucocorticoid-induced leucine zipper in circulating monocytes [4, 6]: increased | protein level of glucocorticoid-induced leucine zipper in circulating monocytes [4, 7]: increased | protein level of complement component 6 in plasma (complement component 6; [6]): reduced | protein level of complement component 6 in plasma (complement component 6; [7]): reduced | protein level of collagen type 1 A1 in fibroblasts (collagen type 1 A1; [6]): reduced | protein level of collagen type 1 A1 in fibroblasts (collagen type 1 A1; [7]): reduced
